{"source": "patent US20120129178A1", "about": "“GENOMIC POLYMORPHISM FOR PREDICTING THERAPEUTIC RESPONSE” (University of Southern California, priority 1999, published 2012)", "origin": "cited, not measured here", "key": {"[1]": {"test_system": "patients with disseminated colon cancer", "settings": "46 patients with disseminated colon cancer; TS mRNA levels higher than 4.1"}, "[2]": {"test_system": "patients with gastric cancer", "settings": "gastric cancer patients treated with 5-Fu"}}, "note": "Read-outs that look alike come from different tables or passages of the source.", "data": [{"compound": "O=c1[nH]cc(F)c(=O)[nH]1", "note": "[5-FU, 5-Fluorouracil]", "values": [{"measurement": "response to 5-FU based treatment", "setting": "[1]", "result": "No patient with TS mRNA levels higher than 4.1 responded to treatment"}, {"measurement": "median survival", "setting": "[2]; TS mRNA levels >4.6", "result": 6, "unit": "months"}, {"measurement": "median survival", "setting": "[2]; TS mRNA levels of 54.6 (so in the source)", "result": "≥ 43", "unit": "months"}]}]}
